From EP1752149A1 (LABORATORIOS DEL DR. ESTEVE, S.A., priority 2005, dated 2007)

How the values were obtained:
[1] = tested on: Nuclear factor of activated T cells (NFAT); assay: NFAT-LUC luciferase reporter, transcriptional activation in Jurkat T cells; format: cell-based, human; settings: Jurkat (PMA+Ion), 6 hours; for IC50: Homo sapiens, approximate value, read-out: NFAT-LUC IC-50
Experimental: (§1) It was also analyzed how these compounds affect transcriptional induction mediated by the transcription factors Nuclear factor of activated T cells (NFAT) or Nuclear factor (NF)-κB. In these experiments, Jurkat T cells or THP-1 cells were transiently transfected by the Lipofectamine2000 reagent (Invitrogen), with luciferase reporter constructs whose expression are directed by three copies of the Interleukin-2 (IL-2) NFAT responsive element (NFAT-LUC) or by three copies of an NF-κB responsive element (NF-κB-LUC). Cells were treated with increased doses of the compound according to example 1 in the presence or absence of stimulation with the phorbol ester PMA (15 ng/ml) plus the A23187 calcium ionophore (1µM) for 6 hours in Jurkat cells or with LPS (5 µg/ml) for 18 hours in THP-1 cells and luciferase activity was measured in cell lysates. Results obtained are represented as percentage of activation, considering 100% the value of luciferase activity obtained in stimulated cells in the absence of the compound according to example 1. The approximate IC-50 (µM) values for the inhibition of the transcriptional activation of NFAT and NF-κB are also shown (Table 2).

Nuclear factor (NF)-κB [2] = assay: NF-κB-LUC luciferase reporter, transcriptional activation in Jurkat T cells; format: cell-based, human; settings: Jurkat (PMA+Ion), 6 hours; for IC50: Homo sapiens, approximate value, read-out: NF-κB -LUC IC-50
Experimental: as §1

Nuclear factor (NF)-κB [3] = assay: NF-κB-LUC luciferase reporter, transcriptional activation in THP-1 cells; format: cell-based, human; settings: THP-1 (LPS), 18 hours; for IC50: Homo sapiens, approximate value, read-out: NF-κB-LUC IC-50
Experimental: as §1

[4] = tested on: cyclooxygenase-2 (COX-LUC); assay: COX2-LUC promoter luciferase reporter in Jurkat T cells; format: cell-based, human; settings: Jurkat (PMA+Ion); for IC50: Homo sapiens, approximated value, read-out: COX2-LUC IC-50
Experimental: as §1
(§2) The compound according to example 1 was measured for its ability to regulate gene transcription in immune activation through the modulation of the transcriptional activity of luciferase reporter constructs whose expression is directed by the promoter region of genes involved in the inflammation process and immune activation, such as cyclooxygenase-2 (COX-LUC), tumor necrosis factor α (TNF-LUC), Interleukin-2 (IL-2-LUC), Interleukin-6 (IL-6-LUC) and the inducible Nitric Oxide Synthase (iNOS-LUC). Jurkat T cells or THP-1 cells were transiently transfected with these constructs as described above, and treated with different doses of The compound according to example 1 in the presence or absence of stimulation with PMA plus Ion (Jurkat) or LPS in a similar way as for NFAT-LUC and NFKB-LUC reporter analysis. Results are represented as percentage of activation, considering 100% the value of luciferase activity obtained in stimulated cells in the absence of the compound according to example 1. Approximated IC50 (µM) values obtained for inhibition of the transcriptional activation are summarized in tables 3 (Jurkat) and 4 (THP-1).

[5] = tested on: tumor necrosis factor α (TNF-LUC); assay: TNF-LUC promoter luciferase reporter in Jurkat T cells; format: cell-based, human; settings: Jurkat (PMA+Ion); for IC50: Homo sapiens, approximated value, read-out: TNF-LUC IC-50
Experimental: as §1, §2

Interleukin-2 (IL-2-LUC) = assay: IL-2-LUC promoter luciferase reporter in Jurkat T cells; format: cell-based, human; settings: Jurkat (PMA+Ion); for IC50: Homo sapiens, approximated value, read-out: IL-2-LUC IC-50
Experimental: as §1, §2

Interleukin-6 (IL-6-LUC) = assay: IL-6-LUC promoter luciferase reporter in Jurkat T cells; format: cell-based, human; settings: Jurkat (PMA+Ion); for IC50: Homo sapiens, approximated value, read-out: IL-6-LUC IC-50
Experimental: as §1, §2

[6] = tested on: cyclooxygenase-2 (COX-LUC); assay: COX2-LUC promoter luciferase reporter in THP-1 cells; format: cell-based, human; settings: THP-1 (LPS); for IC50: Homo sapiens, approximated value, read-out: COX2-LUC IC-50
Experimental: as §1, §2

[7] = tested on: tumor necrosis factor α (TNF-LUC); assay: TNF-LUC promoter luciferase reporter in THP-1 cells; format: cell-based, human; settings: THP-1 (LPS); for IC50: Homo sapiens, approximated value, read-out: TNF-LUC IC-50
Experimental: as §1, §2

[8] = tested on: inducible Nitric Oxide Synthase (iNOS-LUC); assay: iNOS-LUC promoter luciferase reporter in THP-1 cells; format: cell-based, human; settings: THP-1 (LPS); for IC50: Homo sapiens, approximated value, read-out: iNOS-LUC IC-50
Experimental: as §1, §2

TNFα = assay: Inhibition of cytokine production: TNFα secretion by Jurkat T cells, ELISA; format: cell-based, human; settings: Jurkat (PMA+Ion), 24 hours; for IC50: Homo sapiens, approximated value, read-out: TNF IC-50 (µM), inhibition of the cytokine production
Experimental: (§3) In addition to the transcriptional assays, we have also determined the effects of the compound according to example 1 in the secretion of TNFα and IL-2 to the culture medium. Jurkat T cells were treated with different doses of the compound according to example 1 in the presence or absence of stimulation with PMA plus Ion for 24 hours. Supematants were collected and cytokines were measured by specific ELISA for each cytokine (Bender MedSystems). Results are represented as percentage of cytokine production, considering 100% the maximal levels of cytokine production (pg/ml) obtained in PMA+lon stimulated Jurkat cells in the absence of the compound according to example 1.

IL-2 = assay: Inhibition of cytokine production: IL-2 secretion by Jurkat T cells, ELISA; format: cell-based, human; settings: Jurkat (PMA+Ion), 24 hours; for IC50: Homo sapiens, approximated value, read-out: IL-2 IC-50 (µM), inhibition of the cytokine production
Experimental: as §3

[9] = In-vivo bioassay system for determination of cannabinoid activity (hot-plate test, hypothermia, catalepsy, sedation); settings: for Agonistic effect A: Hot-Plate test / Agonistic effect B: Hypothermia / Agonistic effect C: Catalepsy / Agonistic effect D: Sedation: 5 mg/kg i.v.
[10] = Cell viability, tetrazolium salt WST-1, unstimulated Jurkat cells; format: cell-based; settings: human, Jurkat (Cont), read-out: percentage of viability
Experimental: (§4) The viability of the cells was measured by the use of the tetrazolium salt WST-1 (Roche Molecular Biochemicals). Unstimulated Jurkat cells or LPS (5 µg/ml) treated THP-1 cells were incubated for 24 or 18 hours respectively in the presence of increasing doses of the compound according to example 1 (1, 10, 100, 1000 and 10000 nM) and incubated with 10% of WST-1 reagent for 1 hour. Quantification of the formazan dye produced by metabolically active cells was spectrophotometrically measured at 450 nm and a reference wavelength of 630 nm. Data are represented as percentage of viability considering 100% the value of absorbance obtained in the absence of example 1 (Table 1).

[11] = Cell viability, tetrazolium salt WST-1, LPS treated THP-1 cells; format: cell-based; settings: human, THP-1 (LPS 5 µg/ml), read-out: percentage of viability
Experimental: as §4

[12] = 5 mg/kg i.v. prior to Win 55212-2 in a dose of 1,25mg/kg i.v.

Compound Cc1c(C(=O)NN2CCCCC2)nn(-c2ccc(Cl)cc2Cl)c1-c1ccc(Cl)cc1 [SR141716, reference compound] has an IC50 [1] of 200 nM, an IC50 (Nuclear factor (NF)-κB [2]) of 1000 nM and an IC50 (Nuclear factor (NF)-κB [3]) of 5000 nM. The IC50 [4] was > 10000 nM, the IC50 [5] was 10 nM and the IC50 (Interleukin-2 (IL-2-LUC)) was 100 nM. It also gave an IC50 (Interleukin-6 (IL-6-LUC)) of 1000 nM, an IC50 [6] of 6000 nM and an IC50 [7] of 3000 nM. For the same compound, the IC50 [8] was 3000 nM, the IC50 (TNFα) was 6 µM and the IC50 (IL-2) was 7 µM.

With O=C(NN1CCCCC1)C1=NN(c2ccc(Cl)cc2Cl)C(c2ccc(Cl)cc2)C1 (stereo not shown) [Example 1, N-piperidinyl-5-(4-chlorophenyl)-1-(2,4-dichlorophenyl)-4,5-dihydro-1H-pyrazole-3-carboxamide] the “Agonistic effect A: Hot-Plate test” value [9] was 0, the “Agonistic effect B: Hypothermia” value [9] was 0 and the “Agonistic effect C: Catalepsy” value [9] was 0. For the same compound, the “Agonistic effect D: Sedation” value [9] was 0, the “Antagonistic Effect B: Hypothermia” value [9, 12] was 100 and the “Antagonistic Effect C: Catalepsy” value [9, 12] was 100. The “Antagonistic Effect D: Sedation” value [9, 12] was 100, the viability at 24 h, 0.01 µM ([10]; 10 nM) was 92.6% and the viability at 24 h, 0.1 µM ([10]; 100 nM) was 95.4%. It also gave a viability at 24 h, 1 µM ([10]; 1000 nM) of 96.3%, a viability at 24 h, 10 µM ([10]; 10000 nM) of 97.7% and a viability at 18 h, 0.01 µM ([11]; 10 nM) of 105%. It also gave a viability at 18 h, 1 µM ([11]; 1000 nM) of 110%, a viability at 18 h, 10 µM ([11]; 10000 nM) of 80.2% and an IC50 [1] of 3000 nM. The “NFAT-LUC percentage of activation” value ([1]; 0.01 µM) was 72.4%, the “NFAT-LUC percentage of activation” value ([1]; 1 µM) was 56.8% and the “NFAT-LUC percentage of activation” value ([1]; 10 µM) was 7.4%. For the same compound, the IC50 (Nuclear factor (NF)-κB [2]) was 7000 nM, the “NF-κB-LUC percentage of activation” value (Nuclear factor (NF)-κB [2]; 0.01 µM) was 94.7% and the “NF-κB-LUC percentage of activation” value (Nuclear factor (NF)-κB [2]; 1 µM) was 74.4%. For the same compound, the “NF-κB-LUC percentage of activation” value (Nuclear factor (NF)-κB [2]; 10 µM) was 39.3%, the IC50 (Nuclear factor (NF)-κB [3]) was 6000 nM and the “NF-κB-LUC percentage of activation” value (Nuclear factor (NF)-κB [3]; 0.01 µM) was 100.4%. The “NF-κB-LUC percentage of activation” value (Nuclear factor (NF)-κB [3]; 1 µM) was 104.6%, the “NF-κB-LUC percentage of activation” value (Nuclear factor (NF)-κB [3]; 10 µM) was 3.4% and the IC50 [4] was 8000 nM. For the same compound, the “COX2-LUC percentage of activation” value ([4]; 0.01 µM) was 102.7%, the “COX2-LUC percentage of activation” value ([4]; 1 µM) was 93.2% and the “COX2-LUC percentage of activation” value ([4]; 10 µM) was 31.5%. For the same compound, the IC50 [5] was 100 nM, the “TNF-LUC percentage of activation” value ([5]; 0.01 µM) was 59.5% and the “TNF-LUC percentage of activation” value ([5]; 1 µM) was 29.9%. For the same compound, the “TNF-LUC percentage of activation” value ([5]; 10 µM) was 13.7%, the IC50 (Interleukin-2 (IL-2-LUC)) was 1000 nM and the “IL-2-LUC percentage of activation” value (Interleukin-2 (IL-2-LUC); 0.01 µM) was 85.9%. The “IL-2-LUC percentage of activation” value (Interleukin-2 (IL-2-LUC); 1 µM) was 49.0%, the “IL-2-LUC percentage of activation” value (Interleukin-2 (IL-2-LUC); 10 µM) was 9.9% and the IC50 (Interleukin-6 (IL-6-LUC)) was 4000 nM. The “IL-6-LUC percentage of activation” value (Interleukin-6 (IL-6-LUC); 0.01 µM) was 82.3%, the “IL-6-LUC percentage of activation” value (Interleukin-6 (IL-6-LUC); 1 µM) was 61.8% and the “IL-6-LUC percentage of activation” value (Interleukin-6 (IL-6-LUC); 10 µM) was 18.6%. For the same compound, the IC50 [6] was 2000 nM, the “COX2-LUC percentage of activation” value ([6]; 0.01 µM) was 102.7% and the “COX2-LUC percentage of activation” value ([6]; 1 µM) was 59.6%. For the same compound, the “COX2-LUC percentage of activation” value ([6]; 10 µM) was 6.8%, the IC50 [7] was 3000 nM and the “TNF-LUC percentage of activation” value ([7]; 0.01 µM) was 104.4%. The “TNF-LUC percentage of activation” value ([7]; 1 µM) was 65.4%, the “TNF-LUC percentage of activation” value ([7]; 10 µM) was 12.7% and the IC50 [8] was 4000 nM. The “iNOS-LUC percentage of activation” value ([8]; 0.01 µM) was 89.5%, the “iNOS-LUC percentage of activation” value ([8]; 1 µM) was 71.3% and the “iNOS-LUC percentage of activation” value ([8]; 10 µM) was 13.2%. The IC50 (TNFα) was 5 µM, the “TNF percentage of cytokine production” value (TNFα; 0.01 µM) was 79.5% and the “TNF percentage of cytokine production” value (TNFα; 1 µM) was 80.3%. The “TNF percentage of cytokine production” value (TNFα; 10 µM) was 11.5%, the IC50 (IL-2) was 6 µM and the “IL-2 percentage of cytokine production” value (IL-2; 0.01 µM) was 97.5%. The “IL-2 percentage of cytokine production” value (IL-2; 1 µM) was 98.7% and the “IL-2 percentage of cytokine production” value (IL-2; 10 µM) was 13.2%.

With O=C(C1=NN(c2ccc(Cl)cc2Cl)C(c2ccc(Cl)cc2)C1)N1CCCCC1 (stereo not shown) [Example 5, [5-(4-Chloro-phenyl)-1-(2,4-dichloro-phenyl)-4,5-dihydro-1H-pyrazol-3-yl]-piperidin-1-yl-methanone] the “Agonistic effect A: Hot-Plate test” value [9] was 0, the “Agonistic effect B: Hypothermia” value [9] was 50 and the “Agonistic effect C: Catalepsy” value [9] was 0. For the same compound, the “Agonistic effect D: Sedation” value [9] was 0, the “Antagonistic Effect A: Hot-Plate test” value [9, 12] was 50 and the “Antagonistic Effect B: Hypothermia” value [9, 12] was 40. For the same compound, the “Antagonistic Effect C: Catalepsy” value [9, 12] was 20 and the “Antagonistic Effect D: Sedation” value [9, 12] was 20.
